Bounds are passed on as bounds.

Data set [1] has as its system RKOp27 colon cancer cells. In words: Induction of apoptosis, Cell death detection ELISA. Format: cell-based. The settings on record: Homo sapiens, 24 hours, relative to 50 μM cisplatin = 100 cpu, read-out: Apoptosis Induction, -log EC50 (converted). As to the method:
The induction of apoptosis can be measured by using a Cell death detection ELISA (Roche Biochemicals, Mannheim, Germany). RKOp27 colon cancer cells are seeded into 96 well flat bottom plates at a density of 10000 cells per well in a volume of 50 μl RPMI medium (containing 10% fetal calf serum) per well. 24 hours after seeding the 50 μl each of the compound dilutions in RPMI medium are added into each well of the 96 Well plate. Each compound dilution is tested at least as triplicates. Wells containing untreated control cells are filled with 50 μl RPMI medium containing 1% DMSO. The cells are then incubated with the substances for 24 hours at 37° C. in a humidified atmosphere containing 5% carbon dioxide. As a positive control for the induction of apoptosis, cells are treated with 50 μM Cisplatin (Gry Pharmaceuticals, Kirchzarten, Germany). Medium is then removed and the cells are lysed in 200 μl lysis buffer. After centrifugation as described by the manufacturer, 10 μl of cell lysate is processed as described in the protocol. The degree of apoptosis is calculated as follows: The absorbance at 405 nm obtained with lysates from cells treated with 50 μM cisplatin is set as 100 cpu (cisplatin units), while an absorbance at 405 nm of 0.0 was set as 0.0 cpu. The degree of apoptosis is expressed as cpu in relation to the value of 100 cpu reached with the lysates obtained from cells treated with 50 μM cisplatin. The corresponding EC50 values of the compounds for apoptosis inducing activity are determined from the concentration-effect curves.

Data set [2] relates to RKO human colon adenocarcinoma cells (RKOp27), uninduced. In words: Alamar Blue cell viability assay, RKO p27 uninduced (proliferating cells). The format is cell-based. The settings on record: 72 hours, read-out: Anti-proliferative/cytotoxic activity, -log IC50, RKO p27 uninduced (converted). Here is the method: The anti-proliferative/cytotoxic activity of the compounds described herein can be tested on subclones of RKO human colon adenocarcinoma cells (Schmidt et al., Oncogene 19, 2423-2429; 2000) using the Alamar Blue cell viability assay (described in O'Brien et al. Eur J Biochem 267, 5421-5426, 2000). The compounds are dissolved as 10 mM solutions in DMSO and subsequently diluted in semi-logarithmic steps. DMSO dilutions are further diluted 1:100 into Dulbecco's modified Eagle's medium (DMEM) containing 10% fetal calf serum to a final concentration twice as much as the final concentration in the test. RKO subclones are seeded into 96 well flat bottom plates at a density of 4000 cells per well in a volume of 50 μl per well. 24 hours after seeding the 50 μl each of the compound dilutions in DMEM medium are added into each well of the 96 well plate. Each compound dilution is tested as quadruplicates. Wells containing untreated control cells are filled with 50 μl DMEM medium containing 1% DMSO. […] To determine the viability of the cells, 10 μl of an Alamar Blue solution (Biosource) are added and the fluorescence is measured at an extinction of 544 nm and an emission of 590 nm. […] Viabilities are expressed as % values.
The corresponding IC50 values of the compounds for anti-proliferative/cytotoxic activity are determined from the concentration-effect curves.
To determine the cell cycle specific mode of action, subclones of RKO colon adenocarcinoma cells (RKOp27 as described by Schmidt et al. in Oncogene 19, 2423-2429; 2000) are seeded into 96 well flat bottom plates at a density of 16000 cells per well in a volume of 50 μl per well in DMEM growth medium with 10% FCS containing 10 μM Ponasterone A. 24 hours after seeding the 50 μl each of the compound dilutions in DMEM medium are added into each well of the 96-well plate. […] To determine the viability of the cells, 10 μl of an Alamar Blue solution (Biosource) are added and the fluorescence is measured at an extinction of 544 nm and an emission of 590 nm. […] Viabilities are expressed as % values. […]

For data set [3], the system named is RKO colon adenocarcinoma cells (RKOp27), arrested by p27Kip1 induced by Ponasterone A. Nature of the data set: Alamar Blue cell viability assay, RKO p27 induced by Ponasterone A (arrested cells). Format: cell-based. Particulars: Homo sapiens, RKO p27 induced (10 μM Ponasterone A), 72 hours, read-out: Anti-proliferative/cytotoxic activity, -log IC50, RKO p27 induced (converted). As to the method: To determine the cell cycle specific mode of action, subclones of RKO colon adenocarcinoma cells (RKOp27 as described by Schmidt et al. in Oncogene 19, 2423-2429; 2000) are seeded into 96 well flat bottom plates at a density of 16000 cells per well in a volume of 50 μl per well in DMEM growth medium with 10% FCS containing 10 μM Ponasterone A. 24 hours after seeding the 50 μl each of the compound dilutions in DMEM medium are added into each well of the 96-well plate. Each compound dilution is tested as quadruplicates. Wells containing untreated control cells are filled with 50 μl DMEM medium containing 1% DMSO. The cells are then incubated with the substances for 72 hours at 37° C. in a humidified atmosphere containing 5% carbon dioxide. To determine the viability of the cells, 10 μl of an Alamar Blue solution (Biosource) are added and the fluorescence is measured at an extinction of 544 nm and an emission of 590 nm. For the calculation of the cell viability the emission value from untreated cells is set as 100% viability and the emission rates of treated cells are set in relation to the values of untreated cells. Viabilities are expressed as % values. Viability is compared of proliferating cells grown in the absence of the inducer Ponasterone A, versus viability of cells arrested by the expression of ectopic p27Kip1 induced by Ponasterone A.

In data set [4] the test system is NCl-H460 non-small cell lung cancer cells. Nature of the data set: Mitotic spindle malformation by confocal laser scanning microscopy. The format is cell-based. The settings on record: 1 μM, 24 hours, anti-alpha tubulin and Hoechst 33342 staining. Here is the method:
Experimental perturbation of Eg5 function causes a characteristic malformation of the mitotic spindle, which can be examined by confocal laser scanning microscopy. NCl-H460 non-small cell lung cancer cells are grown overnight on glass cover slips (Nunc™ Lab-Tek™ Chamber Slides) in 1800 μl DMEM medium containing 10% fetal calf serum. The test compounds are dissolved as 10 mM solutions in DMSO. Appropriate DMSO dilutions of the test compounds are further diluted 1:10 into DMEM medium containing 10% fetal calf serum to a final concentration ten times as much as the final concentration in the test. 24 hours after seeding, 200 μl of the compound dilutions in DMEM medium are added into each well of the cover slip. As a control, 200 μl DMEM medium containing 10% DMSO are added. 24 hours after incubation with the test compounds, the cells are washed with PBS, and fixed with 3.7% formaldehyde in H2O for 20 min. at 37° C. Subsequently, cells are washed with PBS and incubated with 0.1% Triton X-100 in a buffer containing 1.471 mM KH2PO4, 8.504 mM Na2HPO4, 137 mM NaCl, 1.325 mM CaCl2, 2.685 mM KCl, 0.542 mM MgCl2, pH 7.2 for 15 min. at room temperature. […]

As to `CN1C(=O)C2Cc3c(sc4ccccc34)C(c3cccc(O)c3)N2C1=O` [Example 3, (3aS,10R)-10-(3-Hydroxy-phenyl)-2-methyl-4,10-dihydro-3aH-9-thia-2,10-diaza-cyclopenta[b]fluorene-1,3-dione], the melting point was in the range of 213.3 to 216.4 °C. The EC50 in data set [1] is not above 2.51 µM. Also, in data set [2], the IC50 is not above 0.631 µM. Besides, the IC50 in data set [3] was not below 100 µM. In data set [4], the “Mitotic arrest / mitotic spindle phenotype” value is on record as “significant enrichment of cells arrested in mitosis”.
On to `CN1C(=O)N2[C@H](c3cccc(O)c3)c3sc4ccccc4c3C[C@@]2(C)C1=O` (racemic) [Example 5, (3aSR,10RS)-10-(3-Hydroxy-phenyl)-2,3a-dimethyl-4,10-dihydro-3aH-9-thia-2,10a-diaza-cyclopenta[b]fluorene-1,3-dione], for which, in data set [1], the EC50 is not above 2.51 µM.
As to `CN1C(=O)N2[C@H](c3cccc(O)c3)c3[nH]c4ccccc4c3C[C@@]2(C)C1=O` [Example 2, (3aS,10R)-10-(3-Hydroxy-phenyl)-2,3a-dimethyl-3a,4,9,10-tetrahydro-2,9,10a-triaza-cyclopenty[b]fluorene-1,3-dione], in data set [1], the EC50 is not above 2.51 µM. The results for the IC50 in data set [2] and in data set [3] were not above 0.631 µM and not below 100 µM, respectively.
In turn, `CN1C(=O)N2C(c3cccc(O)c3)c3[nH]c4ccccc4c3CC2(C)C1=O` (racemic) [Example 1, (±)-(3aSR,10RS)-10-(3-Hydroxy-phenyl)-2,3a-dimethyl-3a,4,9,10-tetrahydro-2,9,10a-triaza-cyclopenty[b]fluorene-1,3-dione] registered a melting point of 299 to 305 °C. Besides, in data set [1], the concentration giving a half-maximal response (EC50) was not above 2.51 µM. Further, the IC50 in data set [2] was not above 0.631 µM. Moreover, in data set [3], the IC50 is not below 100 µM. Further, in data set [4], the “Mitotic arrest / mitotic spindle phenotype” value is on record as “significant enrichment of cells arrested in mitosis”.

For the origin of these results see US8044065B2, “Benzothienopyridines for use as inhibitors of Eg5 kinesin” (Altana Pharma AG, priority 2004, dated 2011).
